According to ChEMBL document CHEMBL1158888, “New bioactive rosigenin analogues and aromatic polyketide metabolites from the freshwater aquatic fungus Massarina tunicata” (2003):
Active and inactive are the calls of the source. No cut-off for these calls is given here.

Experiments:
Bacillus subtilis [1] = experiment: Antimicrobial activity against Bacillus subtilis ATCC 6051 at 200 ug/ml by standard disk assay; format: functional; details: read-out: IZ
Staphylococcus aureus = experiment: Antimicrobial activity against Staphylococcus aureus ATCC 29213 at 200 ug/ml by standard disk assay; format: functional; details: read-out: IZ
Bacillus subtilis [2] = experiment: Antimicrobial activity against Bacillus subtilis ATCC 6051 at 200 ug/disk by standard disk assay

Row | SMILES | zone of inhibition at 200 µg/mL (Bacillus subtilis [1]) [mm] | zone of inhibition at 200 µg/mL (Staphylococcus aureus) [mm] | Activity (Bacillus subtilis [2])
1 | COc1c(C)cc(O)c(C(=O)c2c(O)ccc3c2OC(C)(C)C=C3)c1C=O [MASSARININ A] | 17 | 7 | –
2 | C[C@H]1CC(=O)c2c(coc2-c2c(O)ccc3c2OC(C)(C)C=C3)[C@@H]1O [MASSARININ B] | 23 | 12 | –
3 | C#C[C@H](O)COc1ccc(C(=O)O)cc1 | 15 | – | –
4 | C=C1OC(=O)[C@]2([C@H](C)C=CC(=O)[C@H]2O)[C@H]1O [MASSARIGENIN D] | 14 | – | –
5 | C=C1OC(=O)[C@]2([C@H](C)C=C[C@H](O)[C@@H]2O)[C@@H]1O [MASSARIGENIN A] | 11 | – | –
6 | C=C1OC(=O)[C@]2([C@H](C)C=CC(=O)[C@@H]2O)[C@H]1O [MASSARIGENIN C] | 9 | – | –
7 | C=C1OC(=O)[C@]2([C@H](C)CCC(=O)[C@@H]2O)[C@H]1O | – | – | inactive
